Assay results reported in US11472811B2, “Pyrazolotriazolopyrimidine derivatives as A2A receptor antagonist” (BEIGENE, LTD., priority 2018, dated 2022).

Each molecule was assayed against human A2A receptor (A2AR) (Homo sapiens (Human), UniProt P29274) (assay: Luciferase reporter assay (HEK293-A2AR-luc2p/CRE/Hygro cells)). Conditions: 3 nM CGS21680, 5 h incubation.
Format: cell-based
Method: HEK293 cells were maintained in Dulbecco's modified Eagle's medium (DMEM, Gibco) supplemented with 10% fetal bovine serum (FBS, Thermo Scientific), 100 units/mL penicillin (Gibco), and 0.1 mg/mL streptomycin (Gibco) in a humidified 37° C. environment with 5% CO2. Plasmid encoding wild-type human A2A receptor (A2AR) (in pcDNA3.1) was synthesized by Genscript (Nanjing, China). Transfection of the plasmids was performed in 6-well plates with 4×10^5 cells using Lipofectamin 2000 (ThermoFisher Scientific) according to the instruction of the manufacturer. Cell clones that stably express A2AR were established and maintained in the same complete medium as the HEK293 cells in addition of G-418 (Gibico). Expression level of A2AR in each single cell clone was determined using immunoblotting and FACS method. HEK293-A2AR stable cells were then transfected with pGL4.29[luc2P/CRE/Hygro] (Promega) luciferase reporter plasmid for establishing the HEK293-A2AR-luc2p/CRE/Hygro stable cell line.
HEK293-A2AR-luc2p/CRE/Hygro cells were seeded at a density of 5,000 cells/well in DMEM with 1% FBS and 1 U/mL adenosine deaminase (ADA) (Sigma). After 18 h, the cells were treated with 3 nM CGS21680 plus a series dilution of A2AR antagonist, the compounds disclosed herein at the concentration of 0.1˜10000 nM, prepared in DMEM with 1% FBS. After 5 h incubation, the luciferase activity in cells were measured using the Bright-Glo Luciferase Assay System (Promega) according to manufacturer's instructions. The luminescence signal was measured using a PHERAstar FS plate reader (BMG Labtech). […] Maximal luminescence intensity was determined in the presence of 3 nM CGS21680 and was set as 100%. The IC50 value was calculated from a dose dependent inhibition curve across the range of compound concentrations.

Sequence of human A2A receptor (A2AR) (P29274 whole entry): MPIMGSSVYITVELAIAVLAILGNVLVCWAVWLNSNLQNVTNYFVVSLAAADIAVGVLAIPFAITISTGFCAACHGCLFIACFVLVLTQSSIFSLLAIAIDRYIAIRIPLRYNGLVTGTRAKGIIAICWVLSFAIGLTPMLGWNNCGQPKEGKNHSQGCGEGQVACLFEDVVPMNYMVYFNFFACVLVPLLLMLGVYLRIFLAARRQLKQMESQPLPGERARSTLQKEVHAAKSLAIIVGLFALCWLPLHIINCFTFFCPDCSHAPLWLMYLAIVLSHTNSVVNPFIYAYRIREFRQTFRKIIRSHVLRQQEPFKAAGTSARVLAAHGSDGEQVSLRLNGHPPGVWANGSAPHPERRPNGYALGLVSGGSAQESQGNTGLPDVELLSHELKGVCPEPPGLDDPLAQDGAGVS

| IC50 | Structure (SMILES) |
| --- | --- |
| 2 nM | Nc1nc2c(cnn2C(C(=O)NCc2ccccc2OC(F)(F)F)c2ccccc2)c2nc(-c3ccco3)nn12 (centres unmarked) [Example 8, 2-(5-amino-2-(furan-2-yl)-7H-pyrazolo[4,3-e][1,2,4]triazolo[1,5-c]pyrimidin-7-yl)-2-phenyl-N-(2-(trifluoromethoxy)benzyl)acetamide] |
| 16.9 nM | COCCOCCNC(=O)C(C)(c1ccccc1)n1ncc2c1nc(N)n1nc(-c3ccco3)nc21 (centres unmarked) [Example 75, 2-(5-amino-2-(furan-2-yl)-7H-pyrazolo[4,3-e][1,2,4]triazolo[1,5-c]pyrimidin-7-yl)-N-(2-(2-methoxyethoxy)ethyl)-2-phenylpropanamide] |
| 6.1 nM | CCC(C(=O)NCC1(O)COC1)(c1ccccc1)n1ncc2c1nc(N)n1nc(-c3ccco3)nc21 (centres unmarked) [Example 103, 2-(5-amino-2-(furan-2-yl)-7H-pyrazolo[4,3-e][1,2,4]triazolo[1,5-c]pyrimidin-7-yl)-N-((3-hydroxyoxetan-3-yl)methyl)-2-phenylbutanamide] |
| 7.2 nM | CC(C(=O)NCc1cc(F)ccn1)(c1ccccc1)n1ncc2c1nc(N)n1nc(-c3ccco3)nc21 (centres unmarked) [Example 118, 2-(5-amino-2-(furan-2-yl)-7H-pyrazolo[4,3-e][1,2,4]triazolo[1,5-c]pyrimidin-7-yl)-N-((4-fluoropyridin-2-yl)methyl)-2-phenylpropanamide] |
| 13.8 nM | CC(C(=O)NCCO)(c1ccccc1)n1ncc2c1nc(N)n1nc(-c3ccco3)nc21 (centres unmarked) [Example 55, 2-(5-amino-2-(furan-2-yl)-7H-pyrazolo[4,3-e][1,2,4]triazolo[1,5-c]pyrimidin-7-yl)-N-(2-hydroxyethyl)-2-phenylpropanamide] |
| 3.4 nM | CC(C(=O)NCc1ccc(F)cn1)(c1ccccc1)n1ncc2c1nc(N)n1nc(-c3ccco3)nc21 (centres unmarked) [Example 117, 2-(5-amino-2-(furan-2-yl)-7H-pyrazolo[4,3-e][1,2,4]triazolo[1,5-c]pyrimidin-7-yl)-N-((5-fluoropyridin-2-yl)methyl)-2-phenylpropanamide] |
| 31.9 nM | C[C@H](NC(=O)C(c1ccccc1)n1ncc2c1nc(N)n1nc(-c3ccco3)nc21)c1ccccc1 (stereo partly drawn) [Example 9, 2-(5-amino-2-(furan-2-yl)-7H-pyrazolo[4,3-e][1,2,4]triazolo[1,5-c]pyrimidin-7-yl)-2-phenyl-N—((S)-1-phenylethy)acetamide] |
| 11.2 nM | CC(C(=O)N[C@@H]1CC[C@H](O)C1)(c1ccccc1)n1ncc2c1nc(N)n1nc(-c3ccco3)nc21 (stereo partly drawn) [Example 135, 2-(5-amino-2-(furan-2-yl)-7H-pyrazolo[4,3-e][1,2,4]triazolo[1,5-c]pyrimidin-7-yl)-N-((1R,3S)-3-hydroxycyclopentyl)-2-phenylpropanamide] |
| 1.7 nM | C[C@](C(=O)NCCC1CCC(O)CC1)(c1ccccc1)n1ncc2c1nc(N)n1nc(-c3ccco3)nc21 (stereo partly drawn) [Example 149B, (R)-2-(5-amino-2-(furan-2-yl)-7H-pyrazolo[4,3-e][1,2,4]triazolo[1,5-c]pyrimidin-7-yl)-N-(2-(4-hydroxycyclohexyl)ethyl)-2-phenylpropanamide] |
| 1.6 nM | COc1ccc(CNC(=O)C(c2ccccc2)n2ncc3c2nc(N)n2nc(-c4ccco4)nc32)cc1 (centres unmarked) [Example 28, 2-(5-amino-2-(furan-2-yl)-7H-pyrazolo[4,3-e][1,2,4]triazolo[1,5-c]pyrimidin-7-yl)-N-(4-methoxybenzyl)-2-phenylacetamide] |
| 1 nM | Cc1ccc(CNC(=O)C(C)(c2ccccc2)n2ncc3c2nc(N)n2nc(-c4ccco4)nc32)nc1 (centres unmarked) [Example 109, 2-(5-amino-2-(furan-2-yl)-7H-pyrazolo[4,3-e][1,2,4]triazolo[1,5-c]pyrimidin-7-yl)-N-((5-methylpyridin-2-yl)methyl)-2-phenylpropanamide] |
| 0.7 nM | Cc1ccc(CNC(=O)[C@@](C)(c2ccccc2)n2ncc3c2nc(N)n2nc(-c4ccco4)nc32)nc1 [Example 109B, (R)-2-(5-amino-2-(furan-2-yl)-7H-pyrazolo[4,3-e][1,2,4]triazolo[1,5-c]pyrimidin-7-yl)-N-((5-methylpyridin-2-yl)methyl)-2-phenylpropanamide] |
| 6.1 nM | Nc1nc2c(cnn2C(C(=O)NC2CCc3ccccc32)c2ccccc2)c2nc(-c3ccco3)nn12 (centres unmarked) [Example 14, 2-(5-amino-2-(furan-2-yl)-7H-pyrazolo[4,3-e][1,2,4]triazolo[1,5-c]pyrimidin-7-yl)-N-(2,3-dihydro-1H-inden-1-yl)-2-phenylacetamide] |
| 3.8 nM | Nc1nc2c(cnn2C2(C(=O)NCC3(O)COC3)CCCc3ccccc32)c2nc(-c3ccco3)nn12 (centres unmarked) [Example 93, 1-(5-amino-2-(furan-2-yl)-7H-pyrazolo[4,3-e][1,2,4]triazolo[1,5-c]pyrimidin-7-yl)-N-((3-hydroxyoxetan-3-yl)methyl)-1,2,3,4-tetrahydronaphthalene-1-carboxamide] |
| 8.3 nM | Nc1nc2c(cnn2C(C(=O)NC2CCCc3ccccc32)c2ccccc2)c2nc(-c3ccco3)nn12 (centres unmarked) [Example 13, 2-(5-amino-2-(furan-2-yl)-7H-pyrazolo[4,3-e][1,2,4]triazolo[1,5-c]pyrimidin-7-yl)-2-phenyl-N-(1,2,3,4-tetrahydronaphthalen-1-yl)acetamide] |
| 1.9 nM | Cc1cccc(CNC(=O)C(c2ccccc2)n2ncc3c2nc(N)n2nc(-c4ccco4)nc32)c1 (centres unmarked) [Example 23, 2-(5-amino-2-(furan-2-yl)-7H-pyrazolo[4,3-e][1,2,4]triazolo[1,5-c]pyrimidin-7-yl)-N-(3-methylbenzyl)-2-phenylacetamide] |
| 12.4 nM | Nc1nc2c(cnn2C(C(=O)N[C@H]2CC[C@@H](O)CC2)c2ccccc2)c2nc(-c3ccco3)nn12 (mixture of isomers) [Example 92, 2-(5-amino-2-(furan-2-yl)-7H-pyrazolo[4,3-e][1,2,4]triazolo[1,5-c]pyrimidin-7-yl)-(cis)-N-(4-hydroxycyclohexyl)-2-phenylacetamide] |
| 5 nM | C[C@](C(=O)N[C@H]1CC[C@H](O)CC1)(c1ccccc1)n1ncc2c1nc(N)n1nc(-c3ccco3)nc21 [Example 52B, (R)-2-(5-amino-2-(furan-2-yl)-7H-pyrazolo[4,3-e][1,2,4]triazolo[1,5-c]pyrimidin-7-yl)-N-((trans)-4-hydroxycyclohexyl)-2-phenylpropanamide] |
| 3.2 nM | CC(C(=O)NCc1ncccc1F)(c1ccccc1)n1ncc2c1nc(N)n1nc(-c3ccco3)nc21 (centres unmarked) [Example 119, 2-(5-amino-2-(furan-2-yl)-7H-pyrazolo[4,3-e][1,2,4]triazolo[1,5-c]pyrimidin-7-yl)-N-((3-fluoropyridin-2-yl)methyl)-2-phenylpropanamide] |
| 14.9 nM | CC(C(=O)NC1CC1)(c1ccccc1)n1ncc2c1nc(N)n1nc(-c3ccco3)nc21 (centres unmarked) [Example 40, 2-(5-amino-2-(furan-2-yl)-7H-pyrazolo[4,3-e][1,2,4]triazolo[1,5-c]pyrimidin-7-yl)-N-cyclopropyl-2-phenylpropanamide] |
| 15 nM | CC(C(=O)NCC1(O)COC1)(c1ccccc1)n1ncc2c1nc(N)n1nc(-c3nccs3)nc21 (centres unmarked) [Example 133, 2-(5-amino-2-(thiazol-2-yl)-7H-pyrazolo[4,3-e][1,2,4]triazolo[1,5-c]pyrimidin-7-yl)-N-((3-hydroxyoxetan-3-yl)methyl)-2-phenylpropanamide] |
| 6.9 nM | CC(C(=O)NCc1cccc(C2(O)CCC2)n1)(c1ccccc1)n1ncc2c1nc(N)n1nc(-c3ccco3)nc21 (centres unmarked) [Example 130, 2-(5-amino-2-(furan-2-yl)-7H-pyrazolo[4,3-e][1,2,4]triazolo[1,5-c]pyrimidin-7-yl)-N-((6-(1-hydroxycyclobutyl)pyridin-2-yl)methyl)-2-phenylpropanamide] |
| 83.3 nM | Cc1nccnc1-c1nc2c3cnn(C(C)(C(=O)NCC4(O)COC4)c4ccccc4)c3nc(N)n2n1 (centres unmarked) [Example 78, 2-(5-amino-2-(3-methylpyrazin-2-yl)-7H-pyrazolo[4,3-e][1,2,4]triazolo[1,5-c]pyrimidin-7-yl)-N-((3-hydroxyoxetan-3-yl)methyl)-2-phenylpropanamide] |
| 1 nM | C[C@](C(=O)NCc1ccc(C(F)(F)F)cn1)(c1ccccc1)n1ncc2c1nc(N)n1nc(-c3ccco3)nc21 [Example 142B, (R)-2-(5-amino-2-(furan-2-yl)-7H-pyrazolo[4,3-e][1,2,4]triazolo[1,5-c]pyrimidin-7-yl)-2-phenyl-N-((5-(trifluoromethyl)pyridin-2-yl)methyl)propanamide] |
| 50.9 nM | CC(C(=O)N[C@H]1COC[C@@H]1O)(c1ccccc1)n1ncc2c1nc(N)n1nc(-c3ccco3)nc21 (stereo partly drawn) [Example 106, 2-(5-amino-2-(furan-2-yl)-7H-pyrazolo[4,3-e][1,2,4]triazolo[1,5-c]pyrimidin-7-yl)-N-((3S,4R)-4-hydroxytetrahydrofuran-3-yl)-2-phenylpropanamide] |
| 14.6 nM | Nc1nc2c(cnn2C(C(=O)NC2COc3ccccc32)c2ccccc2)c2nc(-c3ccco3)nn12 (centres unmarked) [Example 20, 2-(5-amino-2-(furan-2-yl)-7H-pyrazolo[4,3-e][1,2,4]triazolo[1,5-c]pyrimidin-7-yl)-N-(2,3-dihydrobenzofuran-3-yl)-2-phenylacetamide] |
